Biological target: T1, human recombinant Yes [a.a. 2–543 (end)] (Homo sapiens, UniProt P07947)
T1 construct: human recombinant Yes [a.a; 2–543 (end)]; purchased BPS Bioscience 40488
Assay: ADP-Glo kinase assay, inhibition rates of Yes phosphorylation activity (first and second screening)
Assay type: biochemical
Details: 10 μmol L−1 compound; for First screening IR (inhibition rate): mean of n = 4 wells
Outline: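 ADP-Glo luminescence measured inhibition of human recombinant Yes (a.a. 2–543) phosphorylation activity. In the first screen, each compound ran in 4 wells and inhibition rates were averaged. The second screen retested hits as compounds dissolved from fresh powder.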

T1 sequence (P07947 2-543): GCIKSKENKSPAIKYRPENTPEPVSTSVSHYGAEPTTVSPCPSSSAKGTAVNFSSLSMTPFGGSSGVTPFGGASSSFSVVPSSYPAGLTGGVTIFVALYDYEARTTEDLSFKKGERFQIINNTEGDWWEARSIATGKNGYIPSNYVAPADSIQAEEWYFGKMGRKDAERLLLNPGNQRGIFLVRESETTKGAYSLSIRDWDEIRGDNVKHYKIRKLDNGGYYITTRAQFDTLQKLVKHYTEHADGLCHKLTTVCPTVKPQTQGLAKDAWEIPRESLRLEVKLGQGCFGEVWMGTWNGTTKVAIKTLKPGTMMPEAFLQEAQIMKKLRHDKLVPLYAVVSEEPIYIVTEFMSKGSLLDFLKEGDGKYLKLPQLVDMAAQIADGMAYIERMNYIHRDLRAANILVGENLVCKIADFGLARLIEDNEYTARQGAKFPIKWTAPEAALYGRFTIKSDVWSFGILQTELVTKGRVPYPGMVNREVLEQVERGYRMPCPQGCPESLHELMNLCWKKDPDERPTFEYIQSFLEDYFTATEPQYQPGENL

Row | Structure (SMILES) | First screening IR (inhibition rate) [%] | Second screening IR (inhibition rate) (second screening, dissolved from fresh powder, n = 4) [%]
1 | NC(=O)c1ccc(C(=O)N2CCN(c3ccccn3)CC2)cc1 [Compound Z51750245] | 0 | –
2 | O=C(NCc1cccc(C(F)(F)F)c1)Nc1ccc(NC(=O)c2ccco2)cc1 [Compound Z412775872] | -5 | –
3 | Cc1ccc(C(=O)Nc2ccc(OCc3ccccn3)c(F)c2)cn1 [Compound Z1318975474] | -2 | –
4 | CCN(CC)CCn1c(NC(=O)c2cc3c(C)nn(-c4ccc(Cl)cc4)c3s2)nc2ccccc21 [Compound Z29249972] | -12 | –
5 | Cc1ccc(C(C)C)c(OCC(=O)NC(C)c2ccc(-n3ccnc3)cc2)c1 (stereo not shown) [Compound Z27307326] | 11 | –
6 | CCn1c(CSc2nnc(-c3sc(C)nc3C)o2)nc2cc(S(=O)(=O)N(C)C)ccc21 [Compound Z275500628] | 49 | –
7 | Cn1c(=O)[nH]c(=O)c2c1nc(N1CCN(C/C=C/c3ccccc3)CC1)n2Cc1ccc(Cl)cc1 [Compound Z246071802] | -14 | –
8 | NNc1ncnc2c1cnn2Cc1ccccc1 [Compound Z58286928] | -12 | –
9 | CCOC(=O)c1c(C)oc2ncn(Cc3cccc(F)c3F)c(=O)c12 [Compound Z154098858] | 2 | –
10 | O=C(CN1CCN(C(=O)c2cc(-c3ccccc3)nc3c2cnn3Cc2ccncc2)CC1)NC1CC1 [Compound Z109522106] | 12 | –
11 | CCN(CC)Cc1ccc(C(=O)N2CCC3(C2)NC(=O)NC3=O)cc1 (stereo not shown) [Compound Z1233805260] | 5 | –
12 | Cc1ccc2nc3c(c(C(=O)O)c2c1)CCC/C3=C/c1cnn(C(C)C)c1 [Compound Z1184925017] | -1 | –
13 | CCOC(=O)COc1ccc(C2(C)NC(=O)c3cc(Cl)ccc3N2)cc1 (stereo not shown) [Compound Z839958866] | 5 | –
14 | O=C(Cn1c(CN2CCOCC2)nc2sc3c(c2c1=O)CCCC3)Nc1ccc(OCc2ccccc2)cc1 [Compound Z86108588] | 16 | –
15 | CN(C)C(=O)Cc1ccccc1NCc1ccc(-n2ccnc2)cc1 [Compound Z1462566317] | 13 | –
16 | Cc1ccc(-c2cc(C(=O)NC(C)c3ccccn3)c3cnn(C(C)C)c3n2)cc1 (stereo not shown) [Compound Z225035912] | 16 | –
17 | COc1ccc(Br)c(C(=O)NCc2ccc(-c3csc(C)n3)cc2)c1 [Compound Z131231284] | -17 | –
18 | CCN(CC)Cc1ccccc1CNC(=O)c1c(C)nn(-c2ccc(F)cc2)c1C [Compound Z117807680] | 9 | –
19 | CC1CN(CCCNc2ccc([N+](=O)[O-])c3nonc23)CC(C)O1 (stereo not shown) [Compound Z238688270] | 4 | –
20 | COc1cc(/C=C/C(=O)N2CCCC2c2c(C)nn(C)c2C)cc(Br)c1O (stereo not shown) [Compound Z1634598040] | 41 | –
21 | Cc1cc(/C=C/C(=O)N2CCN(C3CCS(=O)(=O)C3)CC2)c(C)n1-c1ccc2c(c1)OCO2 (stereo not shown) [Compound Z89622401] | -12 | –
22 | Cc1ccccc1Nc1nc(N)nc(CSc2ccccc2)n1 [Compound Z19751109] | 28 | –
23 | Oc1cncc(/C=C/c2nc(-c3ccncc3)no2)c1 [Compound Z1739342675] | 8 | –

Row | Structure (SMILES) | First screening IR (inhibition rate) [%] | Second screening IR (inhibition rate) (second screening, dissolved from fresh powder, n = 4) [%]
24 | CCc1cc(=O)[nH]c(-c2cccc(NC(=O)C3(N4CCOCC4)CCCC3)c2)n1 [Compound Z1203120735] | 3 | –
25 | CCN(C1CCS(=O)(=O)C1)S(=O)(=O)c1c(C)c(C)c(C)c(C)c1C (stereo not shown) [Compound Z45467174] | 8 | –
26 | Cn1ccnc1C(O)(CC(=O)Nc1ccc(Oc2ncccn2)cc1)C(F)(F)F (stereo not shown) [Compound Z757638538] | -7 | –
27 | COc1ccc(CN2CCN(Cc3c(-c4ccccc4)nc4ccccn34)CC2)cc1OC [Compound Z89207636] | 45 | –
28 | Cc1c(C#N)c(NC(=O)CN2CCN(Cc3nc4ccccc4s3)CC2)n(CC2CCCO2)c1C (stereo not shown) [Compound Z125608446] | 12 | –
29 | Cc1c(-c2ccc(O)cc2)nc2ccc(Cl)cc2c1-c1ccccc1Cl.Cl [Compound Z48951741] | 40 | –
30 | O=C(NC1CCS(=O)(=O)C1)c1nc(Cl)c(Cl)c(Cl)c1Cl (stereo not shown) [Compound Z118688092] | -7 | –
31 | N#Cc1ccccc1CSCCNc1cc(=O)n2ccccc2n1 [Compound Z203909940] | -8 | –
32 | Oc1c(-c2nc3ccccc3c3ccccc23)sc2ncccc12 [Compound Z107727738] | 43 | 24
33 | O=C(Nc1nc2cc(C(F)(F)F)ccc2n1Cc1ccco1)c1ccc2n[nH]nc2c1 [Compound Z245503032] | 0 | –
34 | CC(C)n1ncc2c(C(=O)N3CCN(CC(=O)N4CCCCC4)CC3)cc(-c3ccccc3)nc21 [Compound Z147118228] | -5 | –
35 | CCC(C)N(CC(=O)Nc1cccc(C)c1C)C(=O)COC(=O)c1cc(C(C)=O)cn1C (stereo not shown) [Compound Z152371002] | -9 | –
36 | O=C(NCCN1CCc2ccccc2C1)Nc1ccncc1F [Compound Z1677754180] | 0 | –
37 | Cc1cc(C(=O)CCC(=O)NCCc2c[nH]c3ccccc23)c(C)s1 [Compound Z32439393] | 21 | –
38 | Fc1ccccc1-n1c(SCc2cccnc2)nnc1-c1ccccc1Cl [Compound Z316264326] | 1 | –
39 | Cc1cccc(C)c1Nc1nnc(SCC(=O)NC(Cc2c[nH]c3ccccc23)C(=O)O)s1 (stereo not shown) [Compound Z20162836] | 3 | –
40 | CSc1ccc(CSCc2nc(N)nc(Nc3ccccc3)n2)cc1 [Compound Z99558919] | -15 | –
41 | O=C(c1cn(Cc2ccccc2)nc1-c1cccnc1)N1CCN(c2ccccn2)CC1 [Compound Z26735071] | 21 | –
42 | CS(=O)(=O)NS(=O)(=O)CCCCCl [Compound Z56755807] | -15 | –
43 | COc1ccc(/C(O)=C2\C(=O)C(=O)N(CCN3CCNCC3)C2c2cccc(Oc3ccccc3)c2)cc1 (stereo not shown) [Compound Z56865657] | 6 | –
44 | CC1CC(CNC(=O)c2cccc(O)c2)CN1Cc1ccccc1 (stereo not shown) [Compound Z1633590863] | 1 | –
45 | Cc1nn(-c2ccccc2)c2nc(-c3ccccc3)cc(C(F)(F)F)c12 [Compound Z55426459] | -6 | –
46 | O=C(Cc1coc(-c2ccccc2)n1)Nc1ccc2ccccc2n1 [Compound Z167063860] | -6 | –

Row | Structure (SMILES) | First screening IR (inhibition rate) [%] | Second screening IR (inhibition rate) (second screening, dissolved from fresh powder, n = 4) [%]
47 | CC1CCCC(C)C12NC(=O)N(CN(C)CC(=O)Nc1ccccc1Cl)C2=O (stereo not shown) [Compound Z286135428] | 5 | –
48 | Brc1cccc(C2C=C(c3ccccc3)Nc3ncnn32)c1 (stereo not shown) [Compound Z56850769] | 9 | –
49 | Cc1c(-c2ccccc2)nc2ccc(Cl)cc2c1-c1ccccc1.Cl [Compound Z48950813] | 20 | –
50 | Cc1sc2nc(CN3CCCC3)nc(N(C)CC(=O)Nc3ccc(N4CCOCC4)cc3)c2c1C [Compound Z31148700] | 45 | –
51 | c1nc(N2CCCC2c2ccsc2)c2[nH]cnc2n1 (stereo not shown) [Compound Z1343239610] | 12 | –
52 | O=S(=O)(c1ccccc1Cl)N1CCN(Cc2nc(-c3cccc(C(F)(F)F)c3)no2)CC1 [Compound Z224344580] | -5 | –
53 | Cc1ccc(-c2cc(-c3ccccc3)c3ccccc3n2)cc1.Cl [Compound Z48951039] | 11 | –
54 | O=C(N/N=C/C=C/c1ccco1)c1ccc(-c2ccc(F)cc2)s1 [Compound Z839335172] | 6 | –
55 | COc1ccccc1-c1nnc(SCC(=O)c2ccc(NC(C)=O)cc2F)n1-c1ccccc1 [Compound Z51187459] | 0 | –
56 | CC(C)NC(=O)Nc1ccc(C(=O)N(CCC#N)Cc2ccco2)cc1 [Compound Z979061162] | 7 | –
57 | O=C(Nc1cc(-c2cccc(F)c2F)[nH]n1)c1ccc2nncn2c1 [Compound Z1423687928] | 11 | –
58 | C#CCN(C)S(=O)(=O)c1cc(S(C)(=O)=O)sc1Cl [Compound Z1863649257] | -18 | –
59 | Cc1nnc(NC(=O)C2CC(c3cccc(F)c3)=NO2)s1 (stereo not shown) [Compound Z381180216] | -5 | –
60 | O=S(=O)(c1ccc(Cl)cc1)C1(S(=O)(=O)c2ccc(Cl)cc2)CCCC1 [Compound Z56759577] | -18 | –
61 | O=[N+]([O-])c1cc2c(c(CN(Cc3ccccc3)S(=O)(=O)c3cccc(C(F)(F)F)c3)c1)OCOC2 [Compound Z25980301] | 7 | –
62 | O=C(Nc1ccc(S(=O)(=O)Nc2nccs2)cc1)c1cnn(Cc2ccccc2)c1 [Compound Z100622740] | 61 | –
63 | COc1cc(NC(=O)c2cc(-c3ccccc3)nc3c2cnn3C(C)C)cc(OC)c1 [Compound Z52023681] | -11 | –
64 | O=C(Nc1ccc2[nH]c(=O)[nH]c2c1)c1occc1-c1ccccc1 [Compound Z118811128] | 19 | –
65 | Cc1ccccc1Nc1nc(N)nc(CSc2nc3ccccc3c(=O)n2CCCN2CCOCC2)n1 [Compound Z19837406] | -7 | –
66 | C=CCn1c(=O)c2ccccc2n2c(SCC(=O)Nc3ccc(N4CCN(C)CC4)cn3)nnc12 [Compound Z432326346] | 8 | –
67 | CCn1ncc2c(C(=O)NCC(C)(O)C(F)(F)F)cc(-c3cccs3)nc21 (stereo not shown) [Compound Z1535762010] | -4 | –
68 | CC(NCc1ccc(C(=O)Nc2ccccc2)cc1)c1ccc2c(c1)OCCO2 (stereo not shown) [Compound Z89008298] | -38 | –
69 | CC(=O)c1c[nH]c(C(=O)NCCc2ccc(-c3csc(C)n3)s2)c1 [Compound Z165050208] | 3 | –
